Laboratory results: US5948807A (priority 1997, dated 1999)
Where a name gives a salt, the structure may show the parent alone.

Columns and labels:
[1] = biological target: SERT-1, cocaine binding site on the serotonin transporter (Homo sapiens, UniProt P31645); test: biochemical
[2] = biological target: SERT-2, paroxetine binding site on the serotonin transporter (Homo sapiens, UniProt P31645); test: biochemical
[3] = biological target: mu opioid receptor (Homo sapiens, UniProt P35372); test: biochemical; assay type: binding
[4] = biological target: kappa opioid receptor (Homo sapiens, UniProt P41145); test: biochemical; assay type: binding
[5] = test system: serotonin transporter; test: binding at serotonin transporter, comparison with SSRIs; settings: vs citalopram, sertraline and fluoxetine
[6] = biological target: DAT, dopamine transporter (Homo sapiens, UniProt Q01959); test: radioligand binding, DAT ([^3 H]WIN35,428); settings: radioligand [^3 H]WIN35,428; racemic; spiroindanamines as hydrochlorides; read-out: Affinity (IC50) DAT ([^3 H]WIN35,428)
Sequence of DAT, dopamine transporter (Q01959 whole entry): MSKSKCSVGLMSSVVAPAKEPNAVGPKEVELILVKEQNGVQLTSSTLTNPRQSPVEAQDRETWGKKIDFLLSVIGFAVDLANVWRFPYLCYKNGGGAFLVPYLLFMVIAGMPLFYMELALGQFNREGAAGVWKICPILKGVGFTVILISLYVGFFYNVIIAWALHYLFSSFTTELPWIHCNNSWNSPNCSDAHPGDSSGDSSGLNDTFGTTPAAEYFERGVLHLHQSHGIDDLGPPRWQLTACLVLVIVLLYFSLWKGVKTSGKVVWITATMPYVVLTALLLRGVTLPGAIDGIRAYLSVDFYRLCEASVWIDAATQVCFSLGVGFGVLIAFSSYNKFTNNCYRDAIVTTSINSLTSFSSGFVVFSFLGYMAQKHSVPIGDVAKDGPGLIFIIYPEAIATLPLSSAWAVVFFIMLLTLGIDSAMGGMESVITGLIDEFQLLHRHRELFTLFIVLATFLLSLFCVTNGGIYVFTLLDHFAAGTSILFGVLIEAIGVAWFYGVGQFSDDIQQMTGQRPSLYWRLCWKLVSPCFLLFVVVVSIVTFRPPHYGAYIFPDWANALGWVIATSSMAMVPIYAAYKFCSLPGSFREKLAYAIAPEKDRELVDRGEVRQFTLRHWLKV

Sequence of mu opioid receptor (P35372 whole entry): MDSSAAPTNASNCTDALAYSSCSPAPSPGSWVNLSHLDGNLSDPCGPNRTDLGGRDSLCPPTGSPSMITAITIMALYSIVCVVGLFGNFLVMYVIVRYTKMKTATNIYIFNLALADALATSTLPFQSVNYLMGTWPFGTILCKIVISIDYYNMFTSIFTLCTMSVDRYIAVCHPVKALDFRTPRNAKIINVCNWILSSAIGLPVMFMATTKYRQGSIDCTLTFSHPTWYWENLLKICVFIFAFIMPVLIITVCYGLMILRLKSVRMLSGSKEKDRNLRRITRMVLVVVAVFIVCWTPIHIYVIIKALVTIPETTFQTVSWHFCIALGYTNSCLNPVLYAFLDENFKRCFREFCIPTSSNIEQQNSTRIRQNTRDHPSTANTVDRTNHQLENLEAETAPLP
Sequence of SERT-1, cocaine binding site on the serotonin transporter (P31645 whole entry): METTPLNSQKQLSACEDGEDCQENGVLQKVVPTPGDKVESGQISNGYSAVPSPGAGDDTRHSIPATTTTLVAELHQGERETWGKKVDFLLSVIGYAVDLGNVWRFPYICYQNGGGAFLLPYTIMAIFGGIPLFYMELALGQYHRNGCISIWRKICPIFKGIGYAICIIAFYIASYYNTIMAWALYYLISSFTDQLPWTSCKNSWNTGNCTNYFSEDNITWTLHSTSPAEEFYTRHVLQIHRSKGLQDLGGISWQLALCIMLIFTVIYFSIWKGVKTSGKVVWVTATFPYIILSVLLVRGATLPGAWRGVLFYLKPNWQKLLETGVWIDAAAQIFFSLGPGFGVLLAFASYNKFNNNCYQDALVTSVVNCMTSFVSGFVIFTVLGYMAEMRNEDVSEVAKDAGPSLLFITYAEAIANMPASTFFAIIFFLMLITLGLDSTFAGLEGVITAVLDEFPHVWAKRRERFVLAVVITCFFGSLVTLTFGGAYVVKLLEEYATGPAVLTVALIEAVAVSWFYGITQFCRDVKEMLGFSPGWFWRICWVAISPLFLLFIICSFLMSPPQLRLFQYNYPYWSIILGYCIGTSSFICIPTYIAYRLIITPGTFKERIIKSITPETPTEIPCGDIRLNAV
Sequence of SERT-2, paroxetine binding site on the serotonin transporter (P31645 whole entry): as above
Sequence of kappa opioid receptor (P41145 whole entry): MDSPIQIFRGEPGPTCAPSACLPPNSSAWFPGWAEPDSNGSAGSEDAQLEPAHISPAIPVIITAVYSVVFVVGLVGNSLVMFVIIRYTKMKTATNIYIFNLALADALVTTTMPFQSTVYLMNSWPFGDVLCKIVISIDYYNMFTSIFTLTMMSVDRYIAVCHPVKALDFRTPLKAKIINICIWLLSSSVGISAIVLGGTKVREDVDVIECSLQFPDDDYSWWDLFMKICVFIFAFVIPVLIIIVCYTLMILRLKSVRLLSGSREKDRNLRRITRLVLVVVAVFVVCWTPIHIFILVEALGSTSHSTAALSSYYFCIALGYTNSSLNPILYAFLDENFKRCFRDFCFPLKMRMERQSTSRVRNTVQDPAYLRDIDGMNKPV

Compound	IC50 [1] [nM]	IC50 [2] [nM]	IC50 [3] [nM]	IC50 [4] [nM]	affinity for SERT-1 (in words) [1]	affinity at SERT-2 (in words) [2]	affinity for the serotonin transporter relative to SSRIs [5]	IC50 [6] [nM]
O=C1C[C@@]2(C[C@@H](c3ccccc3)c3ccccc32)C(=O)N1 (relative stereo) [Compound 1a, cis-3-Phenylspiro[indan-1,3'-pyrrolidine]-2',5'-dione]	26700	> 100000	100000	> 100000				
COc1ccc2c(c1)C1(CCNC1)CC2c1ccc(Cl)c(Cl)c1 (racemic) [Compound 3c, 3-(3,4-Dichlorophenyl)-6-methoxyspiro[indan-1,3'-pyrrolidine]]	2	400	5000	80000	low nanomolar affinity	moderate to weak affinity	comparable to or higher than that of other specific serotonin re-uptake inhibitors (SSRIs)	150
c1ccc(C2CC3(CCNC3)c3ccccc32)cc1 (racemic) [Compound 3a, 3-Phenylspiro[indan-1,3'-pyrrolidine]]	10	2500	500	10000	low nanomolar affinity	moderate to weak affinity	comparable to or higher than that of other specific serotonin re-uptake inhibitors (SSRIs)	200
COc1ccc2c(c1)C1(CC(=O)NC1=O)CC2c1ccc(Cl)c(Cl)c1 (racemic) [Compound 1c, 3-(3,4-Dichlorophenyl)-6-methoxyspiro[indan-1,3'-pyrrolidin]-2',5'-dione]	250	> 100000	100000	> 100000		higher affinity for SERT-2 than the basic spiroindanamines 3d and 4a		
Oc1ccc2c(c1)C1(CCNC1)CC2c1ccc(Cl)c(Cl)c1 (racemic) [Compound 3d, 3-(3,4-Dichlorophenyl)-6-hydroxyspiro[indan-1,3'-pyrrolidine]]	750	300	2900	1520				730
c1ccc(C2CC3(CCN(CC4CC4)C3)c3ccccc32)cc1 (racemic) [Compound 4a, 1'-Cyclopropylmethyl-3-phenylspiro[indan-1,3'-pyrrolidine] hydrochloride]	2410	2000	980	1000				2900
